Results: ChEMBL document CHEMBL3044974, “Design, synthesis, insecticidal activity and structure-activity relationship of 3,3-dichloro-2-propenyloxy-containing phthalic acid diamide structures” (2012)

Assays:
Assay type in all cases: functional
[1] = tested on: Plutella xylostella; assay: Insecticidal activity against Plutella xylostella (diamondback moth) third-instar larvae reared on 10 ug/mL compound pre-treated cabbage leaf disks assessed as insect mortality measured after 3 days post compound treatment by leaf dipping method
[2] = tested on: Plutella xylostella; assay: Insecticidal activity against Plutella xylostella (diamondback moth) third-instar larvae reared on 10 ug/mL compound pre-treated cabbage leaf disks assessed as insect mortality measured after 2 days post compound treatment by leaf dipping method
[3] = tested on: Plutella xylostella; assay: Insecticidal activity against Plutella xylostella (diamondback moth) third-instar larvae reared on 100 ug/mL compound pre-treated cabbage leaf disks assessed as insect mortality measured after 3 days post compound treatment by leaf dipping method
[4] = tested on: Plutella xylostella; assay: Insecticidal activity against Plutella xylostella (diamondback moth) third-instar larvae reared on 100 ug/mL compound pre-treated cabbage leaf disks assessed as insect mortality measured after 2 days post compound treatment by leaf dipping method

## CC(C)(C)NC(=O)c1c(I)cccc1C(=O)Nc1ccc(OCC=C(Cl)Cl)cc1Cl
[1]
  mortality: 91%
[2]
  mortality: 65%
[3]
  mortality: 100%
[4]
  mortality: 90%

## CC(C)(C)NC(=O)c1c(I)cccc1C(=O)Nc1ccc(OCC=C(Cl)Cl)cc1
[3]
  mortality: 78%
[4]
  mortality: 39%

## CSCC(C)(C)NC(=O)c1c(I)cccc1C(=O)Nc1ccc(OCC=C(Cl)Cl)c(C)c1
[3]
  mortality: 10%
[4]
  mortality: 0%

## COCC(C)(C)NC(=O)c1c(I)cccc1C(=O)Nc1ccc(OCC=C(Cl)Cl)c(C)c1
[3]
  mortality: 70%
[4]
  mortality: 42%

## CSCC(C)(C)NC(=O)c1c(I)cccc1C(=O)Nc1ccc(OCC=C(Cl)Cl)cc1C
[1]
  mortality: 19%
[2]
  mortality: 10%
[3]
  mortality: 95%
[4]
  mortality: 90%

## COCC(C)(C)NC(=O)c1c(I)cccc1C(=O)Nc1ccc(OCC=C(Cl)Cl)cc1C(F)(F)F
[3]
  mortality: 44%
[4]
  mortality: 32%

## COCC(C)(C)NC(=O)c1c(I)cccc1C(=O)Nc1ccc(OCC=C(Cl)Cl)c(Cl)c1
[3]
  mortality: 61%
[4]
  mortality: 42%

## CC(C)(CS(C)(=O)=O)NC(=O)c1c(I)cccc1C(=O)Nc1ccc(OCC=C(Cl)Cl)cc1
[3]
  mortality: 60%
[4]
  mortality: 15%

## CC(C)(C)NC(=O)c1c(I)cccc1C(=O)Nc1ccc(OCC=C(Cl)Cl)cc1F
[1]
  mortality: 0%
[2]
  mortality: 0%
[3]
  mortality: 100%
[4]
  mortality: 81%

## CSCC(C)(C)NC(=O)c1c(I)cccc1C(=O)Nc1ccc(OCC=C(Cl)Cl)c(C(F)(F)F)c1
[3]
  mortality: 0%
[4]
  mortality: 0%

## FC(F)(F)c1ccc(OCCCOc2c(Cl)cc(OCC=C(Cl)Cl)cc2Cl)nc1 [PYRIDALYL]
[1]
  mortality: 37%
[2]
  mortality: 13%
[4]
  mortality: 100%

## CC(C)(CS(C)(=O)=O)NC(=O)c1c(I)cccc1C(=O)Nc1ccc(OCC=C(Cl)Cl)cc1Cl
[1]
  mortality: 20%
[2]
  mortality: 0%
[3]
  mortality: 100%
[4]
  mortality: 75%

## Cc1cc(C(F)(C(F)(F)F)C(F)(F)F)ccc1NC(=O)c1cccc(I)c1C(=O)NC(C)(C)CS(C)(=O)=O [FLUBENDIAMIDE]
[1]
  mortality: 100%
[2]
  mortality: 67%
[4]
  mortality: 100%

## CSCC(C)(C)NC(=O)c1c(I)cccc1C(=O)Nc1ccc(OCC=C(Cl)Cl)cc1Cl
[1]
  mortality: 43%
[2]
  mortality: 0%
[4]
  mortality: 100%

## Cc1cc(NC(=O)c2cccc(I)c2C(=O)NC(C)(C)CS(C)(=O)=O)ccc1OCC=C(Cl)Cl
[3]
  mortality: 19%
[4]
  mortality: 8%

## Cc1cc(OCC=C(Cl)Cl)ccc1NC(=O)c1cccc(I)c1C(=O)NC(C)(C)C
[1]
  mortality: 58%
[2]
  mortality: 32%
[3]
  mortality: 100%
[4]
  mortality: 69%

## COCC(C)(C)NC(=O)c1c(I)cccc1C(=O)Nc1ccc(OCC=C(Cl)Cl)cc1Cl
[3]
  mortality: 63%
[4]
  mortality: 54%

## COCC(C)(C)NC(=O)c1c(I)cccc1C(=O)Nc1ccc(OCC=C(Cl)Cl)c(C(F)(F)F)c1
[3]
  mortality: 44%
[4]
  mortality: 42%

## CC(C)(CS(C)(=O)=O)NC(=O)c1c(I)cccc1C(=O)Nc1ccc(OCC=C(Cl)Cl)cc1C(F)(F)F
[3]
  mortality: 69%
[4]
  mortality: 25%

## CC(C)(C)NC(=O)c1c(I)cccc1C(=O)Nc1ccc(OCC=C(Cl)Cl)cc1C(F)(F)F
[3]
  mortality: 90%
[4]
  mortality: 65%

## CSCC(C)(C)NC(=O)c1c(I)cccc1C(=O)Nc1ccc(OCC=C(Cl)Cl)cc1C(F)(F)F
[3]
  mortality: 62%
[4]
  mortality: 57%

## CSCC(C)(C)NC(=O)c1c(I)cccc1C(=O)Nc1ccc(OCC=C(Cl)Cl)cc1F
[1]
  mortality: 0%
[2]
  mortality: 0%
[3]
  mortality: 100%
[4]
  mortality: 58%

## CC(C)(CS(C)(=O)=O)NC(=O)c1c(I)cccc1C(=O)Nc1ccc(OCC=C(Cl)Cl)c(Cl)c1
[3]
  mortality: 48%
[4]
  mortality: 24%

## COCC(C)(C)NC(=O)c1c(I)cccc1C(=O)Nc1ccc(OCC=C(Cl)Cl)cc1F
[3]
  mortality: 61%
[4]
  mortality: 47%

## Cc1cc(OCC=C(Cl)Cl)ccc1NC(=O)c1cccc(I)c1C(=O)NC(C)(C)CS(C)(=O)=O
[3]
  mortality: 81%
[4]
  mortality: 76%

## CSCC(C)(C)NC(=O)c1c(I)cccc1C(=O)Nc1ccc(OCC=C(Cl)Cl)c(Cl)c1
[3]
  mortality: 81%
[4]
  mortality: 38%

## COCC(C)(C)NC(=O)c1c(I)cccc1C(=O)Nc1ccc(OCC=C(Cl)Cl)cc1C
[3]
  mortality: 72%
[4]
  mortality: 47%

## CSCC(C)(C)NC(=O)c1c(I)cccc1C(=O)Nc1ccc(OCC=C(Cl)Cl)cc1
[3]
  mortality: 45%
[4]
  mortality: 15%

## CC(C)(CS(C)(=O)=O)NC(=O)c1c(I)cccc1C(=O)Nc1ccc(OCC=C(Cl)Cl)cc1F
[3]
  mortality: 90%
[4]
  mortality: 55%

## CC(C)(C)NC(=O)c1c(I)cccc1C(=O)Nc1ccc(OCC=C(Cl)Cl)c(C(F)(F)F)c1
[3]
  mortality: 8%
[4]
  mortality: 0%

## CC(C)(C)NC(=O)c1c(I)cccc1C(=O)Nc1ccc(OCC=C(Cl)Cl)c(Cl)c1
[3]
  mortality: 76%
[4]
  mortality: 57%

## Cc1cc(NC(=O)c2cccc(I)c2C(=O)NC(C)(C)C)ccc1OCC=C(Cl)Cl
[3]
  mortality: 25%
[4]
  mortality: 0%

## CC(C)(CS(C)(=O)=O)NC(=O)c1c(I)cccc1C(=O)Nc1ccc(OCC=C(Cl)Cl)c(C(F)(F)F)c1
[3]
  mortality: 0%
[4]
  mortality: 0%
